Data as given in patent publication US10858356B2, “Pyrazolopyridine derivative having GLP-1 receptor agonist effect” (Chugai Seiyaku Kabushiki Kaisha, priority 2016, dated 2020).

Target: human GLP1R (Homo sapiens (Human), UniProt P43220)
Test: In vitro cAMP signal activation in human GLP1R stably-expressing cell line (hGLP1R-HEK293)
Format: cell-based
Details: cAMP concentration in hGLP1R-HEK293; 100% = 1 nM human GLP-1 (7-37)
Description: <Test Example 1> Measurement of In Vitro cAMP Signal Activation of a Compound in Human GLP1R
A human GLP1R stably-expressing cell line (hGLP1R-HEK293) was used in the experiment. The cells were cultured in a Dulbecco's modified Eagle's medium (DMEM) containing 10% fetal bovine serum (Sigma-Aldrich), 100 units/mL penicillin G and 100 μg/mL streptomycin sulfate (Gibco), and 500 μg/mL Geneticin (Gibco), under a moist atmosphere containing 5% CO2, at 37° C.
hGLP1R-HEK293 was seeded in 96 well plates at 2.0×10^4 cells per well and cultured over night. The medium for culturing the cells was changed to 50 μL of Medium A (DMEM, 20 mM HEPES, 0.05% BSA, 0.5 mM 3-isobutyl-1-methylxanthine) the next day, and the cells were incubated at 37° C. for 30 min. Then, 50 μL of Medium B (DMEM, 20 mM HEPES, 0.05% BSA, 0.5 mM 3-isobutyl-1-methylxanthine) containing GLP-1 or the compound was added, and the cells were incubated at 37° C. for an additional 30 min. Then, 100 μL of Assay lysis buffer (Applied Bioscience) was added, and the cells were incubated at 37° C. for 30 min. The cAMP concentration was quantified using cAMP HiRange kit (Cisbio Bioassays).
By setting the cAMP concentration when the human GLP-1 (7-37) was put into action at a concentration of 1 nM to 100%, the cAMP concentration of each well was converted to a reaction rate (%).

Sequence of human GLP1R (P43220 24-463): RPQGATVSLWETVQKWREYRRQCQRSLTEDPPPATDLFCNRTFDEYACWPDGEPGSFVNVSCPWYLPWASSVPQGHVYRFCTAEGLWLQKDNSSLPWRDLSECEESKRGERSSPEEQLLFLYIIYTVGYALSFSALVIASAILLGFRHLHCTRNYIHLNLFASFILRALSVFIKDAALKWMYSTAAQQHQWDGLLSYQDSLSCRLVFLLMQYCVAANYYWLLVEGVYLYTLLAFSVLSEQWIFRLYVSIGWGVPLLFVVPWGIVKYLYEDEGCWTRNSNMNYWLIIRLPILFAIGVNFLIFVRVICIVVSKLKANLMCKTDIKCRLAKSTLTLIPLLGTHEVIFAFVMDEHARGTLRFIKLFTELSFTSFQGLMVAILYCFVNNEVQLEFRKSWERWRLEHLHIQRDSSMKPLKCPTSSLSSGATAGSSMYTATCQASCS

| Compound | EC50 [nM] |
| --- | --- |
| Cc1cc(-n2nc3c(c2-n2ccn(-c4ccc5c(cnn5C)c4F)c2=O)[C@H](C)N(C(=O)c2cc4cc([C@H]5CCOC(C)(C)C5)ccc4n2[C@@]2(c4noc(=O)[nH]4)C[C@@H]2C)CC3)ccc1F [compound 69, 3-[(1S,2S)-1-[5-[(4S)-2,2-dimethyloxan-4-yl]-2-[(4S)-3-[3-(4-fluoro-1-methylindazol-5-yl)-2-oxoimidazol-1-yl]-2-(4-fluoro-3-methylphenyl)-4-methyl-6,7-dihydro-4H-pyrazolo[4,3-c]pyridine-5-carbonyl]indol-1-yl]-2-methylcyclopropyl]-4H-1,2,4-oxadiazol-5-one] | 2.8 |
| Cc1cc(-n2nc3c(c2-n2ccn(-c4ccc5c(cnn5C)c4Cl)c2=O)[C@H](C)N(C(=O)c2cc4cc([C@H]5CCOC(C)(C)C5)ccc4n2[C@@]2(c4noc(=O)[nH]4)C[C@@H]2C)CC3)ccc1F [Example 49, 3-[(1S,2S)-1-[2-[(4S)-3-[3-(4-chloro-1-methylindazol-5-yl)-2-oxoimidazol-1-yl]-2-(4-fluoro-3-methylphenyl)-4-methyl-6,7-dihydro-4H-pyrazolo[4,3-c]pyridine-5-carbonyl]-5-[(4S)-2,2-dimethyloxan-4-yl]indol-1-yl]-2-methylcyclopropyl]-4H-1,2,4-oxadiazol-5-one] | 3.8 |
| Cc1cc(-n2nc3c(c2-n2ccn(-c4ccc5c(cnn5C)c4Cl)c2=O)[C@H](C)N(C(=O)c2cc4cc(C5CCOCC5)ccc4n2[C@@]2(c4noc(=O)[nH]4)C[C@@H]2C)CC3)cc(C)c1F [compound 72, 3-[(1S,2S)-1-[2-[(4S)-3-[3-(4-chloro-1-methylindazol-5-yl)-2-oxoimidazol-1-yl]-2-(4-fluoro-3,5-dimethylphenyl)-4-methyl-6,7-dihydro-4H-pyrazolo[4,3-c]pyridine-5-carbonyl]-5-(oxan-4-y)indol-1-yl]-2-methylcyclopropyl]-4H-1,2,4-oxadiazol-5-one] | 2.3 |
| COc1nccc(-c2ccc3c(c2)cc(C(=O)N2CCc4nn(-c5cc(C)c(F)c(C)c5)c(-n5ccn(-c6ccc7c(cnn7C)c6)c5=O)c4[C@@H]2C)n3[C@@]2(c3noc(=O)[nH]3)C[C@@H]2C)c1C [Example 12, 3-[(1S,2S)-1-[2-[(4S)-2-(4-fluoro-3,5-dimethylphenyl)-4-methyl-3-[3-(1-methylindazol-5-yl)-2-oxoimidazol-1-yl]-6,7-dihydro-4H-pyrazolo[4,3-c]pyridine-5-carbonyl]-5-(2-methoxy-3-methylpyridin-4-yl)indol-1-yl]-2-methylcyclopropyl]-4H-1,2,4-oxadiazol-5-one] | 2.7 |
| Cc1cc(-n2nc3c(c2-n2ccn(-c4ccc5c(cnn5CC5(C)COC5)c4)c2=O)[C@H](C)N(C(=O)c2cc4cc(C5CCOCC5)ccc4n2[C@@]2(c4noc(=O)[nH]4)C[C@@H]2C)CC3)cc(C)c1F [Example 17, 3-[(1S,2S)-1-[2-[(4S)-2-(4-fluoro-3,5-dimethylphenyl)-4-methyl-3-[3-[1-[(3-methyloxetan-3-yl)methyl]indazol-5-yl]-2-oxoimidazol-1-yl]-6,7-dihydro-4H-pyrazolo[4,3-c]pyridine-5-carbonyl]-5-(oxan-4-yl)indol-1-yl]-2-methylcyclopropyl]-4H-1,2,4-oxadiazol-5-one] | 1 |
| Cc1cc(-n2nc3c(c2-n2ccn(-c4ccc5c(cnn5CC(C)(C)O)c4F)c2=O)[C@H](C)N(C(=O)c2cc4cc(C5CCOCC5)ccc4n2[C@@]2(c4noc(=O)[nH]4)C[C@@H]2C)CC3)cc(C)c1F [Example 30, 3-[(1S,2S)-1-[2-[(4S)-2-(4-fluoro-3,5-dimethylphenyl)-3-[3-[4-fluoro-1-(2-hydroxy-2-methylpropyl)indazol-5-yl]-2-oxoimidazol-1-yl]-4-methyl-6,7-dihydro-4H-pyrazolo[4,3-c]pyridine-5-carbonyl]-5-(oxan-4-yl)indol-1-yl]-2-methylcyclopropyl]-4H-1,2,4-oxadiazol-5-one] | 1.4 |
| COCCN(C(C)=O)C12C3C4C1C1C2C3C41n1ccn(-c2c3c(nn2-c2cc(C)c(F)c(C)c2)CCN(C(=O)c2cc4cc(C5CCOCC5)ccc4n2[C@@]2(c4noc(=O)[nH]4)C[C@@H]2C)[C@H]3C)c1=O (stereo partly drawn) [compound 57, N-[4-[3-[(4S)-2-(4-fluoro-3,5-dimethylphenyl)-4-methyl-5-[1-[(1S,2S)-2-methyl-1-(5-oxo-4H-1,2,4-oxadiazol-3-yl)cyclopropyl]-5-(oxan-4-yl)indole-2-carbonyl]-6,7-dihydro-4H-pyrazolo[4,3-c]pyridin-3-yl]-2-oxoimidazol-1-yl]cuban-1-yl]-N-(2-methoxyethyl)acetamide] | 8.1 |
| Cc1cc(-n2nc3c(c2-n2ccn(-c4ccc5c(cnn5C)c4)c2=O)CN(C(=O)c2cc4cc(C5CCOCC5)ccc4n2[C@@]2(c4noc(=O)[nH]4)C[C@@H]2C)CC3)cc(C)c1Cl [compound 55, 3-[(1S,2S)-1-[2-[2-(4-chloro-3,5-dimethylphenyl)-3-[3-(1-methylindazol-5-yl)-2-oxoimidazol-1-yl]-6,7-dihydro-4H-pyrazolo[4,3-c]pyridine-5-carbonyl]-5-(oxan-4-yl)indol-1-yl]-2-methylcyclopropyl]-4H-1,2,4-oxadiazol-5-one] | 3.7 |
| CCc1nccc(-c2ccc3c(c2)cc(C(=O)N2CCc4nn(-c5cc(C)c(F)c(C)c5)c(-n5ccn(-c6ccc7c(cnn7C)c6)c5=O)c4C2)n3[C@@]2(c3noc(=O)[nH]3)C[C@@H]2C)c1C [Example 2, 3-[(1S,2S)-1-[5-(2-ethyl-3-methylpyridin-4-yl)-2-[2-(4-fluoro-3,5-dimethylphenyl)-3-[3-(1-methylindazol-5-yl)-2-oxoimidazol-1-yl]-6,7-dihydro-4H-pyrazolo[4,3-c]pyridine-5-carbonyl]indol-1-yl]-2-methylcyclopropyl]-4H-1,2,4-oxadiazol-5-one] | 5.6 |
| Cc1cc(-n2nc3c(c2-n2ccn(-c4ccc5c(cnn5CC(F)(F)F)c4F)c2=O)[C@H](C)N(C(=O)c2cc4cc([C@H]5CCOC(C)(C)C5)ccc4n2[C@@]2(c4noc(=O)[nH]4)C[C@@H]2C)CC3)cc(C)c1F [Example 35, 3-[(1S,2S)-1-[5-[(4S)-2,2-dimethyloxan-4-yl]-2-[(4S)-2-(4-fluoro-3,5-dimethylphenyl)-3-[3-[4-fluoro-1-(2,2,2-trifluoroethyl)indazol-5-yl]-2-oxoimidazol-1-yl]-4-methyl-6,7-dihydro-4H-pyrazolo[4,3-c]pyridine-5-carbonyl]indol-1-yl]-2-methylcyclopropyl]-4H-1,2,4-oxadiazol-5-one] | 3.2 |
| CCc1nccc(-c2ccc3c(c2)cc(C(=O)N2CCc4nn(-c5cc(C)c(F)c(C)c5)c(-n5ccn(-c6ccc7c(C)nn(C)c7c6)c5=O)c4C2)n3[C@@]2(c3noc(=O)[nH]3)C[C@@H]2C)c1C [Example 5, 3-[(1S,2S)-1-[2-[3-[3-(1,3-dimethylindazol-6-yl)-2-oxoimidazol-1-yl]-2-(4-fluoro-3,5-dimethylphenyl)-6,7-dihydro-4H-pyrazolo[4,3-c]pyridine-5-carbonyl]-5-(2-ethyl-3-methylpyridin-4-yl)indol-1-yl]-2-methylcyclopropyl]-4H-1,2,4-oxadiazol-5-one] | 6.1 |
| Cc1cc(-n2nc3c(c2-n2ccn(-c4ccc5c(c4)CC(=O)N(C)C5)c2=O)[C@H](C)N(C(=O)c2cc4cc([C@H]5CCOC(C)(C)C5)ccc4n2[C@@]2(c4noc(=O)[nH]4)C[C@@H]2C)CC3)cc(C)c1F [Example 39, 3-[(1S,2S)-1-[5-[(4S)-2,2-dimethyloxan-4-yl]-2-[(4S)-2-(4-fluoro-3,5-dimethylphenyl)-4-methyl-3-[3-(2-methyl-3-oxo-1,4-dihydroisoquinolin-6-yl)-2-oxoimidazol-1-yl]-6,7-dihydro-4H-pyrazolo[4,3-c]pyridine-5-carbonyl]indol-1-yl]-2-methylcyclopropyl]-4H-1,2,4-oxadiazol-5-one] | 1 |
| COc1cc(-n2ccn(-c3c4c(nn3-c3cc(C)c(F)c(C)c3)CCN(C(=O)c3cc5cc(C6CCOCC6)ccc5n3[C@@]3(c5noc(=O)[nH]5)C[C@@H]3C)[C@H]4C)c2=O)ccc1OC(C)(C)CO [Example 20, 3-[(1S,2S)-1-[2-[(4S)-2-(4-fluoro-3,5-dimethylphenyl)-3-[3-[4-(1-hydroxy-2-methylpropan-2-yl)oxy-3-methoxyphenyl]-2-oxoimidazol-1-yl]-4-methyl-6,7-dihydro-4H-pyrazolo[4,3-c]pyridine-5-carbonyl]-5-(oxan-4-yl)indol-1-yl]-2-methylcyclopropyl]-4H-1,2,4-oxadiazol-5-one] | 1.9 |
| COCCn1ncc2c(F)c(-n3ccn(-c4c5c(nn4-c4ccc(F)c(C)c4)CCN(C(=O)c4cc6cc(C7CCOCC7)ccc6n4[C@@]4(c6noc(=O)[nH]6)C[C@@H]4C)[C@H]5C)c3=O)ccc21 [Example 47, 3-[(1S,2S)-1-[2-[(4S)-3-[3-[4-fluoro-1-(2-methoxyethyl)indazol-5-yl]-2-oxoimidazol-1-yl]-2-(4-fluoro-3-methylphenyl)-4-methyl-6,7-dihydro-4H-pyrazolo[4,3-c]pyridine-5-carbonyl]-5-(oxan-4-yl)indol-1-yl]-2-methylcyclopropyl]-4H-1,2,4-oxadiazol-5-one] | 2 |
| Cc1cc(C)cc(-n2nc3c(c2-n2ccn(-c4ccc5c(cnn5C)c4)c2=O)CN(C(=O)c2cc4cc(C5CCOC(C)(C)C5)ccc4n2[C@@]2(c4noc(=O)[nH]4)C[C@@H]2C)CC3)c1 (stereo partly drawn) [compound 60] | 4.9 |
